Reference: BigSolDB 2.1

CC(C)(C)C(=O)C(Oc1ccc(Cl)cc1)n1cncn1 (stereo not given)
solubility (mole fraction)
Settings | 288.15 K | 293.15 K | 298.15 K | 303.15 K | 308.15 K | 313.15 K | 318.15 K | 323.15 K | 328.15 K | 333.15 K
in acetonitrile | 0.011 | 0.0132 | 0.0162 | 0.0196 | 0.0238 | 0.0285 | 0.034 | 0.0407 | 0.0479 | 0.057
in cyclohexane | 0.000445 | 0.00143 | 0.00382 | 0.00873 | 0.0178 | 0.0315 | 0.0489 | 0.0692 | 0.0869 | 0.0986
in n-heptane | 0.00129 | 0.00204 | 0.00321 | 0.00483 | 0.00737 | 0.0111 | 0.0164 | 0.0238 | 0.034 | 0.0491
in n-hexane | 0.000262 | 0.000539 | 0.00104 | 0.00197 | 0.0035 | 0.00592 | 0.00984 | 0.0156 | 0.0233 | 0.0354
in p-xylene | 0.0631 | 0.0846 | 0.112 | 0.147 | 0.188 | 0.239 | 0.299 | 0.372 | 0.456 | 0.553
in toluene | 0.0916 | 0.119 | 0.154 | 0.192 | 0.235 | 0.282 | 0.333 | 0.381 | 0.431 | 0.475
